What was measured:
GSK3β = GSK3β (Homo sapiens, UniProt P49841); details: cited from earlier work
GSK3 = GSK3 inhibitor; cited from earlier work
gamma secretase = details: read-out: IC50, gamma secretase inhibitor; cited from earlier work
pNSCs = experiment: pNSC self-renewal, clonogenicity and culture on Matrigel; format: cell-based, human
Experimental: (§1) hESCs (HUES9 and HUES1) at about 20% confluence were treated with 3 μM CHIR99021 (Cellagentech), 2 μM SB431542 (Cellagentech), 0.1 μM Compound E (γ-Secretase Inhibitor XXI, EMD Chemicals Inc.) in neural induction media containing Advanced DMEM/F12:Neurobasal (1:1), 1×N2, 1×B27, 1% Glutmax, 5 μg/mL BSA and 10 ng/mL hLIF (Millipore), for 7 d. The culture was then split 1:3 for the next six passages using Accutase and cultured in neural induction media supplemented with 3 μM CHIR99021 and 2 μM SB431542 on X-ray inactivated MEF feeders or Matrigel-coated plates. After six passages, the cells were split 1:10 regularly. Neural induction of H1 hESCs follows the same protocol, but using 4 μM CHIR99021, 3 μM SB431542, and 0.1 μM compound E in the first 7 d, after which the cells were regularly cultured with neural induction media supplemented with 3 μM CHIR99021 and 2 μM SB431542. During the initial few passages, overnight treatment with the ROCK inhibitor (Y-27632, 5 μM, Cellagentech) was also used to enhance cell survival, but not required in following passages. In the present study, neural induction data were collected under feeder conditions except the FACS analysis of FIG. 6 performed under feeder-free condition. pNSCs were expanded on Matrigel-coated surfaces.
pNSCs can long-term self-renew over serial passages on Matrigel with SBR431542, CHIR, and hLIF. pNSCs generated from HUES9 and H1 hESCs were routinely passaged 1:10 and have been cultured for >30 passages without obviously losing proliferative capacity, which is equivalent to at least 94 population doublings. However, individual omission of hLIF, SB431542, or CHIR from the media compromised pNSCs' long-term self-renewal. Single pNSC is clonogenic on Matrigel in the presence of hLIF/SB431542/CHIR (FIG. 2A). […] Despite their highly proliferative and clonogenic capacity, pNSCs are not tumorigenic in SCID beige mice.

SAPK2/p38 = SAPK2/p38 (Homo sapiens, UniProt Q16539); details: inhibitor of CK1 and ALK5; cited from earlier work
Sequence of SAPK2/p38 (Q16539 whole entry): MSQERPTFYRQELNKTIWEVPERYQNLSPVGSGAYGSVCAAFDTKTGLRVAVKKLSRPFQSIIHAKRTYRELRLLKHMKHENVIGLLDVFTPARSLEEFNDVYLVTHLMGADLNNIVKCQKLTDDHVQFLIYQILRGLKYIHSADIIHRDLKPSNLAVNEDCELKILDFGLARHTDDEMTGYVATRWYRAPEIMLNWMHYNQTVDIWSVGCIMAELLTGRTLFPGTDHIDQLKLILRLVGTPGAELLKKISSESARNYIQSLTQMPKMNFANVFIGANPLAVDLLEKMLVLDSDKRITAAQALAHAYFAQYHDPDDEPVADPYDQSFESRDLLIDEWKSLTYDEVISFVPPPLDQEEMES

Notch signaling = Notch signaling inhibitor and gamma secretase inhibitor; cited from earlier work
hESCs = experiment: Neural induction of hESCs (real-time PCR, immunocytochemistry, flow cytometry); format: cell-based, human
Experimental: as §1, with “[…]),” for “CHIR99021 (Cellagentech),”, “([…]),” for “(Cellagentech),”, “Neural induction of H1 hESCs follows the same protocol, but using 4 μM CHIR99021, 3 μM SB431542, and 0.1 μM compound E in the first 7 d, after which the cells were regularly cultured with neural induction media supplemented with 3 μM CHIR99021 and 2 μM SB431542.” left out, “([…])” for “(Y-27632, 5 μM, Cellagentech)”, “surfaces. For immunofluorescence assays, pNSCs were fixed in 4% paraformaldehyde for 10 min. Specifically, 4% paraformaldehyde with 0.15% picric acid was used to fix the neuronal differentiation culture. For immunostaining of GABA antigen, the cells were fixed in 4% paraformaldehyde, 0.15% picric acid and 0.02% Glutaraldehyde. […]” for “surfaces.”

Sequence of GSK3β (P49841 whole entry, species assumed): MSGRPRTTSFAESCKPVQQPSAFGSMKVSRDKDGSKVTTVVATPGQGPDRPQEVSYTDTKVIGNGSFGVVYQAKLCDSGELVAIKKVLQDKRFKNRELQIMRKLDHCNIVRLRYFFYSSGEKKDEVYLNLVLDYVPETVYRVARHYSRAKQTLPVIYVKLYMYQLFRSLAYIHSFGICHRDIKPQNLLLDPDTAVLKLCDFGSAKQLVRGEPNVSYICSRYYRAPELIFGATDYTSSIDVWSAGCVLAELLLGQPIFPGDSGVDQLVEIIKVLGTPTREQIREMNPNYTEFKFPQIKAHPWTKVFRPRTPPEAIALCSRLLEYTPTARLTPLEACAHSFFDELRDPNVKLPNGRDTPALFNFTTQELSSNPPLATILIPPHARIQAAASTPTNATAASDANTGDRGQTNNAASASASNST

Molecule: O=C1NC(=O)C(c2cccc3c2OCO3)N1 (stereo not drawn) [(Z)-5-(2,3-Methylenedioxyphenyl)imidazolidine-2,4-dione]
- IC50 (GSK3β): 27 nM

Molecule: C[C@H](NC(=O)Cc1cc(F)cc(F)c1)C(=O)N[C@H]1N=C(c2ccccc2)c2ccccc2N(C)C1=O [Compound E, (S,S)-2-[2-(3,5-Difluorophenyl)-acetylamino]-N-(1-methyl-2-oxo-5-phenyl-2,3-dihydro-1H-benzo[e][1,4]diazepin-3-yl)-propionamide]
- IC50 (gamma secretase): ~0.3 nM
- effect on established pNSCs (pNSCs; 48 h treatment): rapidly induced pNSCs to differentiate into Double cortin (DCX)-positive neuronal precursors
- colony formation from single pNSC (pNSCs; on Matrigel): no colonies were observed

Molecule: NC(=O)c1ccc(-c2nc(-c3ccc4c(c3)OCCO4)c(-c3ccccn3)[nH]2)cc1 [D 4476, 4-[4-(2,3-Dihydro-1,4-benzodioxin-6-yl)-5-(2-pyridinyl)-1H-imidazol-2-yl]benzamide]
- selectivity over SAPK2/p38 (SAPK2/p38): > 20 fold

Molecule: CCC[C@H](N[C@H]1CCc2cc(F)cc(F)c2C1)C(=O)Nc1cn(C(C)(C)CNCC(C)(C)C)cn1 [PF-03084014, (S)-2-(((S)-6,8-difluoro-1,2,3,4-tetrahydronaphthalen-2-yl)amino)-N-(1-(2-methyl-1-(neopentylamino)propan-2-yl)-1H-imidazol-4-yl)pentanamide]
- IC50 (Notch signaling): 13.3 nM

Molecule: bFGF: basic fibroblast growth factor, 20 ng/mL in neural induction media
- morphology of pNSCs (pNSCs; neural induction media with 20 ng/mL bFGF, 4 d): gained rosette-like structures

B1: Wnt3a: Wnt3a used to replace CHIR in the neural induction protocol (protein, UniProt P56704 19-352, looked up)
Protein Wnt-3a: SYPIWWSLAVGPQYSSLGSQPILCASIPGLVPKQLRFCRNYVEIMPSVAEGIKIGIQECQHQFRGRRWNCTTVHDSLAIFGPVLDKATRESAFVHAIASAGVAFAVTRSCAEGTAAICGCSSRHQGSPGKGWKWGGCSEDIEFGGMVSREFADARENRPDARSAMNRHNNEAGRQAIASHMHLKCKCHGLSGSCEVKTCWWSQPDFRAIGDFLKDKYDSASEMVVEKHRESRGWVETLRPRYTYFKVPTERDLVYYEASPNFCEPNPETGSFGTRDRTCNVSSHGIDGCDLLCCGRGHNARAERRREKCRCVFHWCCYVSCQECTRVYDVHTCK
- effect of replacing CHIR in the neural induction protocol (hESCs): induced significant spontaneous differentiation and did not generate a homogenous NSC population

From patent US8883502B2, “Expandable cell source of neuronal stem cell populations and methods for obtaining and using them” (The Regents of the University of California, priority 2010, dated 2014)
